From patent US20040142952A1, “Triazoloquinazoline and pyrazolotriazolopyrimidine derivatives, medicinal compositions, adenosine a3 receptor affinity agents, ocular tension lowering agents, preparations for preventing and treating glaucoma and method of lowering ocular tension” (priority 2001, published 2004)

Compared with `CCCCc1nc2c(cnn2CCC)c2nc(-c3ccc(F)cc3)nn12` [Example 124, 5-n-butyl-2-(4-fluorophenyl)-7-n-propylpyrazolo[4,3-e]-1,2,4-triazolo[1,5-c]pyrimidine], `CCCCc1nc2c(cnn2CCO)c2nc(-c3ccc(F)cc3)nn12` [Example 134, 5-n-butyl-2-(4-fluorophenyl)-7-(2-hydroxyethyl)pyrazolo[4,3-e]-1,2,4-triazolo[1,5-c]pyrimidine] is higher in melting point: 105.5 to 106 °C for the first, 150.5 to 151.5 °C for the second.

Compared with `CCCCc1nc2nn(CCC)cc2c2nc(-c3ccc(F)cc3)nn12` [Example 125, 5-n-butyl-2-(4-fluorophenyl)-8-n-propylpyrazolo[4,3-e]-1,2,4-triazolo[1,5-c]pyrimidine], `CCCCc1nc2nn(CC)cc2c2nc(-c3ccc(F)cc3)nn12` [Example 144, 5-n-butyl-8-ethyl-2-(4-fluorophenyl)pyrazolo[4,3-e]-1,2,4-triazolo[1,5-c]pyrimidine] is higher in melting point: 106.5 to 107.5 °C for the first, 146 to 147 °C for the second.

First: CCCCc1nc2c(cnn2CCC)c2nc(-c3ccc(Cl)cc3)nn12 [Example 126, 5-n-butyl-2-(4-chlorophenyl)-7-n-propylpyrazolo[4,3-e]-1,2,4-triazolo[1,5-c]pyrimidine]
Second: CCCCc1nc2c(cnn2CCO)c2nc(-c3ccc(Cl)cc3)nn12 [Example 138, 5-n-butyl-2-(4-chlorophenyl)-7-(2-hydroxyethyl)pyrazolo[4,3-e]-1,2,4-triazolo[1,5-c]pyrimidine]
The melting point of the first is lower: 131.5 to 132 °C for the first, 164 to 164.5 °C for the second.

First: CCCCc1nc2nn(CCC)cc2c2nc(-c3ccc(Cl)cc3)nn12 [Example 127, 5-n-butyl-2-(4-chlorophenyl)-8-n-propylpyrazolo[4,3-e]-1,2,4-triazolo[1,5-c]pyrimidine]
Second: CCCCc1nc2nn(CC)cc2c2nc(-c3ccc(Cl)cc3)nn12 [Example 145, 5-n-butyl-2-(4-chlorophenyl)-8-ethylpyrazolo[4,3-e]-1,2,4-triazolo[1,5-c]pyrimidine]
The melting point of the first is lower: 137 to 138 °C for the first, 141 to 142 °C for the second.

Compared with `CCCCc1nc2c(cnn2CC(=O)OCC)c2nc(-c3ccccc3)nn12` [Example 128, ethyl 2-(5-n-butyl-2-phenylpyrazolo[4,3-e]-1,2,4-triazolo[1,5-c]pyrimidin-7-yl)acetate], `CCCCc1nc2c(cnn2CC(=O)O)c2nc(-c3ccccc3)nn12` [Example 151, 2-(5-n-butyl-2-phenylpyrazolo[4,3-e]-1,2,4-triazolo[1,5-c]pyrimidin-7-yl)acetic acid] is higher in melting point: 131.5 to 132.5 °C for the first, 271 to 272.5 °C for the second.

First: CCCCc1nc2nn(CC(=O)OCC)cc2c2nc(-c3ccccc3)nn12 [Example 129, ethyl 2-(5-n-butyl-2-phenylpyrazolo[4,3-e]-1,2,4-triazolo[1,5-c]pyrimidin-8-yl)acetate]
Second: CCCCc1nc2nn(CC(=O)OCC)cc2c2nc(-c3ccc(F)cc3)nn12 [Example 131, ethyl 2-[5-n-butyl-2-(4-fluorophenyl)pyrazolo[4,3-e]-1,2,4-triazolo[1,5-c]pyrimidin-8-yl]acetate]
The melting point of the first is lower: 136 to 137 °C for the first, 164 to 165 °C for the second.

First: CCCCc1nc2c(cnn2CC(=O)OCC)c2nc(-c3ccc(F)cc3)nn12 [Example 130, ethyl 2-[5-n-butyl-2-(4-fluorophenyl)pyrazolo[4,3-e]-1,2,4-triazolo[1,5-c]pyrimidin-7-yl]acetate]
Second: CCCCc1nc2c(cnn2CCO)c2nc(-c3ccc(C)cc3)nn12 [Example 136, 5-n-butyl-7-(2-hydroxyethyl)-2-(4-methylphenyl)pyrazolo[4,3-e]-1,2,4-triazolo[1,5-c]pyrimidine]
The melting point of the first is higher: 139.5 to 140.5 °C for the first, 134 to 136 °C for the second.

First: CCCCc1nc2c(cnn2CCO)c2nc(-c3ccccc3)nn12 [Example 132, 5-n-butyl-7-(2-hydroxyethyl)-2-phenylpyrazolo[4,3-e]-1,2,4-triazolo[1,5-c]pyrimidine]
Second: CCCCc1nc2nn(CCO)cc2c2nc(-c3ccccc3)nn12 [Example 133, 5-n-butyl-8-(2-hydroxyethyl)-2-phenylpyrazolo[4,3-e]-1,2,4-triazolo[1,5-c]pyrimidine]
The melting point of the first is lower: 132 to 133 °C for the first, 160.5 to 162 °C for the second.

First: CCCCc1nc2nn(CCO)cc2c2nc(-c3ccc(F)cc3)nn12 [Example 135, 5-n-butyl-2-(4-fluorophenyl)-8-(2-hydroxyethyl)pyrazolo[4,3-e]-1,2,4-triazolo[1,5-c]pyrimidine]
Second: CCCCc1nc2nn(CCO)cc2c2nc(-c3ccc(C)cc3)nn12 [Example 137, 5-n-butyl-8-(2-hydroxyethyl)-2-(4-methylphenyl)pyrazolo[4,3-e]-1,2,4-triazolo[1,5-c]pyrimidine]
The melting point of the first is higher: 202 to 203 °C for the first, 171 to 173 °C for the second.

Compared with `CCCCc1nc2nn(CCO)cc2c2nc(-c3ccc(Cl)cc3)nn12` [Example 139, 5-n-butyl-2-(4-chlorophenyl)-8-(2-hydroxyethyl)pyrazolo[4,3-e]-1,2,4-triazolo[1,5-c]pyrimidine], `CCCCc1nc2nn(CCO)cc2c2nc(-c3ccc(OC)cc3)nn12` [Example 141, 5-n-butyl-8-(2-hydroxyethyl)-2-(4-methoxyphenyl)pyrazolo[4,3-e]-1,2,4-triazolo[1,5-c]pyrimidine] is lower in melting point: 189 to 190.5 °C for the first, 178 to 179 °C for the second.

First: CCCCc1nc2c(cnn2CCO)c2nc(-c3ccc(OC)cc3)nn12 [Example 140, 5-n-butyl-7-(2-hydroxyethyl)-2-(4-methoxyphenyl)pyrazolo[4,3-e]-1,2,4-triazolo[1,5-c]pyrimidine]
Second: CCCCc1nc2nn(CCC)cc2c2nc(-c3ccc(OC)cc3)nn12 [Example 146, 5-n-butyl-2-(4-methoxyphenyl)-8-n-propylpyrazolo[4,3-e]-1,2,4-triazolo[1,5-c]pyrimidine]
The melting point of the first is higher: 147.5 to 148.5 °C for the first, 112 to 112.5 °C for the second.

First: CCCCc1nc2nn(CC)cc2c2nc(-c3ccc(OC)cc3)nn12 [Example 142, 5-n-butyl-8-ethyl-2-(4-methoxyphenyl)pyrazolo[4,3-e]-1,2,4-triazolo[1,5-c]pyrimidine]
Second: CCCCc1nc2nn(CC)cc2c2nc(-c3ccc(C)cc3)nn12 [Example 143, 5-n-butyl-8-ethyl-2-(4-methylphenyl)pyrazolo[4,3-e]-1,2,4-triazolo[1,5-c]pyrimidine]
The melting point of the first is lower: 127 to 128 °C for the first, 128 to 129 °C for the second.

Compared with `COc1ccc(-c2nc3c4cnnc-4nc(CCCC(=O)O)n3[nH]2)cc1` [Example 148, 4-[2-(4-methoxyphenyl)pyrazolo[4,3-e]-1,2,4-triazolo[1,5-c]pyrimidin-5-yl]butyric acid], `Cc1ccc(-c2nc3c4cnnc-4nc(CCCC(=O)O)n3[nH]2)cc1` [Example 150, 4-[2-(4-methylphenyl)pyrazolo[4,3-e]-1,2,4-triazolo[1,5-c]pyrimidin-5-yl]butyric acid] is higher in melting point: 247.5 to 249 °C for the first, 249 to 251 °C for the second.

Compared with `O=C(O)CCCc1nc2nncc-2c2nc(-c3ccc(Cl)cc3)[nH]n12` [Example 149, 4-[2-(4-chlorophenyl)pyrazolo[4,3-e]-1,2,4-triazolo[1,5-c]pyrimidin-5-yl]butyric acid], `O=C(O)CCCc1nc2ccccc2c2nc(-c3ccc(Cl)cc3)nn12` [Example 156, 4-[2-(4-chlorophenyl)-1,2,4-triazolo[1,5-c]quinazolin-5-yl]butyric acid] is lower in melting point: 253.5 to 255.5 °C for the first, 227 to 228 °C for the second.

Compared with `O=C(O)CCCc1nc2ccccc2c2nc(-c3ccccc3)nn12` [Example 153, 4-(2-phenyl-1,2,4-triazolo[1,5-c]quinazolin-5-yl)butyric acid], `O=C(O)CCCc1nc2ccccc2c2nc(-c3ccc(Br)cc3)nn12` [Example 154, 4-[2-(4-bromophenyl)-1,2,4-triazolo[1,5-c]quinazolin-5-yl]butyric acid] is higher in melting point: 211 to 211.5 °C for the first, 219 to 220 °C for the second.

Compared with `O=C(O)CCCc1nc2ccccc2c2nc(-c3ccc(F)cc3)nn12` [Example 155, 4-[2-(4-fluorophenyl)-1,2,4-triazolo[1,5-c]quinazolin-5-yl]butyric acid], `CCCCCc1nc2ccccc2c2nc(-c3ccc(O)cc3)nn12` [Example 157, 2-(4-hydroxyphenyl)-5-n-pentyl-1,2,4-triazolo[1,5-c]quinazoline] is lower in melting point: 225 to 226 °C for the first, 214 to 215 °C for the second.

For `CCCCc1nc2nn(CC(=O)O)cc2c2nc(-c3ccccc3)nn12` [Example 152, 2-(5-n-butyl-2-phenylpyrazolo[4,3-e]-1,2,4-triazolo[1,5-c]pyrimidin-8-yl)acetic acid], the melting point was > 281 °C (dec.).
